One data set addresses MYH7. To be noted: ASO, CC-2580, 5 µM.
A further data set concerns the target ANGPTL2. As to conditions: ASO.

Where “and” joins values, the source holds several entries; their conditions need not be identical. Equal values may be shown once. After the bases stand the sugars from the 5' end (letter, count) and the backbone: PS all phosphorothioate, else s phosphorothioate and o phosphodiester by linkage. Methylation of C is not given here. l = locked nucleic acid (LNA); d = 2'-deoxy (DNA)

On to “CAGCTTGGCGATGATCT (sugars ldllddlddldddddll, PS)”, for which the target mRNA inhibition with MYH7 is 28% and 5%.
As for “CAGCTTGGCGATGATCT (sugars lddldldddldddddll, PS)”, the target mRNA inhibition in the data set with MYH7 was 12% and -4%.
The same measure, in the same setting: the figure for “TCAGCTTGGCGATGATCT (sugars ldlddlldlddddddlll, PS)” is 31% and 16%; for “TCAGCTTGGCGATGATCT (sugars ldlddldddddddlldll, PS)” it is 36% and 19%; for “TCAGCTTGGCGATGATCT (sugars l2 d11 l1 d1 l3, PS)” it is 64% and 55%.
Still for that read-out and setting: the figure for “CTTGGCAATGATCTCATCC (sugars lddddddllddlddlddll, PS)” is 26% and 5%.
Same read-out and setting: to “CAGCTTGGCGATGATCT (sugars dlddlddddddlddlll, PS)” belongs 50% and 32%; to “CAGCTTGGCGATGATCT (sugars ldldddddddlldldll, PS)”, 38% and 34%.
On to “CTTGGCAATGATCTCATCC (sugars ldddddddldlddldldll, PS)”, for which the target mRNA inhibition with MYH7 was 22% and 4%.
As to “CTTGGCAATGATCTCATCC (sugars l1 d11 l1 d2 l4, PS)”, the target mRNA inhibition with MYH7 is 54% and 33%.
Same read-out and setting: the figure for “CAGCTTGGCGATGATCT (sugars llddlddlddddddlll, PS)” is 9% and -16%.
“TTATGCACTCGGTTCTCC (sugars l1 d15 l2, PS)”: the target mRNA inhibition with ANGPTL2 (5 µM) worked out at 30.6%; with ANGPTL2 (25 µM) it was 46.6%.
Consider “CAGCTTGGCGATGATCT (sugars lddlddddddldldlll, PS)”, for which the target mRNA inhibition with MYH7 is 20% and 19%.
Same read-out and setting: the figure for “TCAGCTTGGCGATGATCT (sugars llldlddldddddldlll, PS)” is 0% and 2%.
Turning to “CAGCTTGGCGATGATCT (sugars lldlldddddlddddll, PS)”, the target mRNA inhibition with MYH7 was 34% and 16%.
Still for that read-out and setting: the figure for “CTTGGCAATGATCTCATCC (sugars lddlddddddlldldldll, PS)” is -14% and -32%.
On to “ACCCTCCATCCTTCACC (sugars l4 d11 l2, PS)”, for which the results for the target mRNA inhibition with ANGPTL2 (5 µM) and in the data set with ANGPTL2 (25 µM) were 36.5% and 52.7%, respectively.
As to CTCCAAATTAAATCCG (sugars l4 d9 l3, PS), the results for the target mRNA inhibition with ANGPTL2 (5 µM) and with ANGPTL2 (25 µM) were 22.4% and 32.3%, respectively.
As to “ATAGTGGGCAGAGGGGG (sugars l1 d14 l2, PS)”, the target mRNA inhibition in the data set with ANGPTL2 (5 µM) was 21.6%; with ANGPTL2 (25 µM) it was 13.4%.
For “CAGCTTGGCGATGATCT (sugars l2 d8 l1 d2 l4, PS)”, the target mRNA inhibition in the data set with MYH7 was 37% and 35%.
Still for that read-out and setting: to “CTTGGCAATGATCTCATCC (sugars ldldddddddlldldldll, PS)” belongs 24% and 29%.
In the case of “ATTTTGAGATTCCCCCAAA (sugars l1 d14 l4, PS)”, the values for the target mRNA inhibition in the data set with ANGPTL2 (5 µM) and with ANGPTL2 (25 µM) were 7.37% and -8.2%, respectively.
For “CTGGAAAGAAGGGGCTGTG (sugars l1 d16 l2, PS)” the same measures were 38.8% and 30.4%.
For “TAATGGCTGAGATGCAG (sugars l4 d11 l2, PS)” the same measures were 36% and 52.6%.
Regarding “AAGTTGATAGTTTATCTC (sugars l4 d11 l3, PS)”, the target mRNA inhibition in the data set with ANGPTL2 (5 µM) was determined as 91.6%; in the data set with ANGPTL2 (25 µM) it was 91.4%.
Turning to “GTTATGCCCATTTCTAGG (sugars l1 d15 l2, PS)”, the target mRNA inhibition with ANGPTL2 (5 µM) amounted to 47.7%; in the data set with ANGPTL2 (25 µM), 58.8%.
For “TTGATGATGCGGTTGTA (sugars l3 d12 l2, PS)” the same measures were 76.5% and 83.1%.
On to “GAAGAAAAGAGCACATGG (sugars l3 d11 l4, PS)”, for which the target mRNA inhibition in the data set with ANGPTL2 (5 µM) came to 33.2%; with ANGPTL2 (25 µM) it was 9.98%.
With “CAGCTTGGCGATGATCT (sugars lddldddllddddddll, PS)”, the target mRNA inhibition with MYH7 is 23% and 16%.
Regarding “ATCAATAGGCAGACAGGC (sugars l2 d14 l2, PS)”, the target mRNA inhibition in the data set with ANGPTL2 (5 µM) came to 50.1%; with ANGPTL2 (25 µM) it was 65.4%.
“CAGCTTGGCGATGATCT (sugars ldldddddddldlddll, PS)”: the target mRNA inhibition in the data set with MYH7 is 9% and -10%.
In the case of “CAGCTTGGCGATGATCT (sugars ldldlldlddddddlll, PS)”, the target mRNA inhibition with MYH7 is 30% and 32%.
As for “CCAGAGCTAATCAGTGG (sugars l2 d13 l2, PS)”, the results for the target mRNA inhibition with ANGPTL2 (5 µM) and in the data set with ANGPTL2 (25 µM) were 39.4% and 48.8%, respectively.
As for “CTTGGCAATGATCTCATCC (sugars lddlddddddldlddldll, PS)”, the target mRNA inhibition in the data set with MYH7 was -3% and -25%.
On to “CAGCTTGGCGATGATCT (sugars lddlldddddlddddll, PS)”, for which the target mRNA inhibition with MYH7 was 31% and 7%.
With “CCACCCATTTAGCCTTC (sugars l1 d14 l2, PS)”, the target mRNA inhibition with ANGPTL2 (5 µM) is 46.7%; with ANGPTL2 (25 µM), 42.7%.
Take “CTTGGCAATGATCTCATCC (sugars lddldddddddlddlddll, PS)”: the target mRNA inhibition in the data set with MYH7 was 60% and 37%.
Same read-out and setting: to “TCAGCTTGGCGATGATCT (sugars llldlddddddddldlll, PS)” belongs 18% and 2%; to “TCAGCTTGGCGATGATCT (sugars ldldldddddddlddlll, PS)”, 33% and 18%; to “TCAGCTTGGCGATGATCT (sugars lddldldddddddlldll, PS)”, 3% and -15%.
Consider “GTTGATAGTTTATCTCCT (sugars l1 d14 l3, PS)”, for which the target mRNA inhibition turned out to be 64.1% with ANGPTL2 (5 µM) and 76.7% with ANGPTL2 (25 µM).
For “GCCAACACTAACTCGGC (sugars l1 d14 l2, PS)” the same measures were 30.6% and 31.4%.
As to “CCATTTTGAGATTCCCCCAA (sugars l3 d15 l2, PS)”, the figures for the target mRNA inhibition in the data set with ANGPTL2 (5 µM) and in the data set with ANGPTL2 (25 µM) were 44.4% and 43.9%, respectively.
With “TCAGCTTGGCGATGATCT (sugars l2 d6 l1 d5 l4, PS)”, the target mRNA inhibition with MYH7 was 58% and 46%.
Turning to “CCCACAATGAGACTGGT (sugars l2 d13 l2, PS)”, the target mRNA inhibition with ANGPTL2 (5 µM) was found to be 30.2%; in the data set with ANGPTL2 (25 µM), 30.4%.
Take “CTTGGCAATGATCTCATCC (sugars lddldddddddldldldll, PS)”: the target mRNA inhibition with MYH7 was 34% and 17%.
Consider “CTTGGCAATGATCTCATCC (sugars lddlddddddlddldldll, PS)”, for which the target mRNA inhibition with MYH7 is 14% and 6%.
In the case of “CAGCTTGGCGATGATCT (sugars lldddddddldddldll, PS)”, in the data set with MYH7, the target mRNA inhibition was 5% and -8%.
Same read-out and setting: to “TCAGCTTGGCGATGATCT (sugars lddlddldddddddldll, PS)” belongs 24% and 20%; to “CTTGGCAATGATCTCATCC (sugars l3 d10 l1 d2 l3, PS)”, 80% and 64%.
AAAGGATGTAAGATGCA (sugars l4 d9 l4, PS): the target mRNA inhibition with MYH7 is 88% and 89%.
Consider GTTCGTCAGCCAGTAA (sugars l2 d11 l3, PS), for which the target mRNA inhibition in the data set with ANGPTL2 (5 µM) is 46.5%; with ANGPTL2 (25 µM) it was 75.5%.
Turning to “TCAGCTTGGCGATGATCT (sugars ldldlddddddlddldll, PS)”, the target mRNA inhibition in the data set with MYH7 was 5% and -16%.
Consider “TCAGCTTGGCGATGATCT (sugars l4 d12 l2, PS)”, for which the target mRNA inhibition with MYH7 was 76% and 56%.
Take “GTCATAGAAACTACCCC (sugars l1 d13 l3, PS)”: the results for the target mRNA inhibition with ANGPTL2 (5 µM) and with ANGPTL2 (25 µM) were 29.1% and 68.1%, respectively.
On to “TCAGCTTGGCGATGATCT (sugars l3 d9 l1 d1 l4, PS)”, for which the target mRNA inhibition with MYH7 is 42% and 36%.
Take “AAGAAGTTAACAGAGCCATC (sugars l1 d15 l4, PS)”: the values for the target mRNA inhibition in the data set with ANGPTL2 (5 µM) and in the data set with ANGPTL2 (25 µM) were 42.1% and 45.8%, respectively.
As to “CAGCTTGGCGATGATCT (sugars lddlddddddlldddll, PS)”, the target mRNA inhibition with MYH7 is -44% and -36%.
Consider “CAGCTTGGCGATGATCT (sugars l2 d9 l1 d2 l3, PS)”, for which the target mRNA inhibition in the data set with MYH7 was 59% and 54%.
Same read-out and setting: the figure for “CAGCTTGGCGATGATCT (sugars l2 d8 l1 d3 l3, PS)” is 48% and 29%.
In the case of “CAGGCCAACACTAACTC (sugars l1 d12 l4, PS)”, the target mRNA inhibition with ANGPTL2 (5 µM) amounted to 66.9%; with ANGPTL2 (25 µM) it was 82.5%.
“TCAGCTTGGCGATGATCT (sugars l2 d6 l1 d6 l3, PS)”: in the data set with MYH7, the target mRNA inhibition is 47% and 23%.
Still for that read-out and setting: the figure for “TCAGCTTGGCGATGATCT (sugars l2 d9 l1 d3 l3, PS)” is 40% and 33%.
Consider “CAGGTCCTTGTACTTGC (sugars l2 d13 l2, PS)”, for which the target mRNA inhibition was 49.2% in the data set with ANGPTL2 (5 µM) and 62% in the data set with ANGPTL2 (25 µM).
For “TTAGTGGAAGGTGTTGG (sugars l3 d12 l2, PS)” the same measures were 51.1% and 62.8%.
The like results for GCTCTCATAATCCTAC (sugars l2 d11 l3, PS) were, in that order, 59.2% and 65.4%.
The like results for “CTGGTTGATGATGCGGTT (sugars l1 d15 l2, PS)” were, in that order, 56% and 66%.
For “CTAGTGTGCTCTGGAGC (sugars l1 d14 l2, PS)”, the target mRNA inhibition with ANGPTL2 (5 µM) was determined as 36.6%; with ANGPTL2 (25 µM), 65.7%.
As for “TTTCTAAACTCTCACCCTG (sugars l1 d15 l3, PS)”, the target mRNA inhibition in the data set with ANGPTL2 (5 µM) was 26.4%; in the data set with ANGPTL2 (25 µM), 25.1%.
In the case of TTGGTTCGTCAGCCAG (sugars l1 d12 l3, PS), the target mRNA inhibition stood at 49.1% in the data set with ANGPTL2 (5 µM) and 65% with ANGPTL2 (25 µM).
As for “ATTGTGGGTTGGAGGGC (sugars l1 d14 l2, PS)”, the results for the target mRNA inhibition with ANGPTL2 (5 µM) and with ANGPTL2 (25 µM) were 30.3% and 18.7%, respectively.
The like results for “TTGATGATGCGGTTGTAG (sugars l3 d13 l2, PS)” were, in that order, 70.7% and 77.8%.
For “AGTTGATAGTTTATCTCCT (sugars l2 d15 l2, PS)” the same measures were 59.7% and 67.4%.
As for “CTGGGTTATATTCTCTT (sugars l2 d12 l3, PS)”, the target mRNA inhibition in the data set with ANGPTL2 (5 µM) came to 39.4%; with ANGPTL2 (25 µM), 43.5%.
Turning to “CATTTTGAGATTCCCCCA (sugars l1 d15 l2, PS)”, the target mRNA inhibition in the data set with ANGPTL2 (5 µM) is 22.1%; in the data set with ANGPTL2 (25 µM), 21.1%.
In the case of “TAATTCACCGCCAAATTAC (sugars l3 d13 l3, PS)”, the figures for the target mRNA inhibition with ANGPTL2 (5 µM) and in the data set with ANGPTL2 (25 µM) were 27.6% and 36.8%, respectively.
Take “ACCCTCCATCCTTCACC (sugars l3 d12 l2, PS)”: the target mRNA inhibition was 38.9% with ANGPTL2 (5 µM) and 44% with ANGPTL2 (25 µM).

Source of the values: the OligoGym collection.
